Reference: patent US11612606B2, “8-aminoisoquinoline compounds and uses thereof” (priority 2018, dated 2023)

Target: HPK full length, T165E S171E (Homo sapiens (Human), UniProt Q92918, S171E/T165E)
Assay: HPK1-FL HTRF enzymatic assay ("HTRF")
Format: biochemical
Conditions: ATP 1 mM, read-out: HPK1 Ki
Experimental: Assay Principle: HPK-FL enzyme phosphorylates Biotin-SLP-76 substrate in the presence of ATP at […] and varying concentrations of test compound. Product is detected by FRET using Eu-anti-pSLP76 Ab and SA-XL665. Also see www.cisbio.com/HTRF for additional HTRF technology information.
Instrumentation: Echo555 compound dispenser; Agilent Bravo; Perkin Elmer Envision.
To a 384 well Proxiplate with 80 nL compound or DMSO spotted on was added 4 μl/well kinase mix. The mixture was preincubated for 30 minutes and then 4 μl/well substrate mix was added. The solution was incubated for 60 min and then 4 μl/well detection mix was added. The solution was incubated for another 60 min.
Exemplary compounds were tested in the HTRF binding assays.

HPK full length, T165E S171E, sequence (Q92918 whole entry T165E/S171E, looked up): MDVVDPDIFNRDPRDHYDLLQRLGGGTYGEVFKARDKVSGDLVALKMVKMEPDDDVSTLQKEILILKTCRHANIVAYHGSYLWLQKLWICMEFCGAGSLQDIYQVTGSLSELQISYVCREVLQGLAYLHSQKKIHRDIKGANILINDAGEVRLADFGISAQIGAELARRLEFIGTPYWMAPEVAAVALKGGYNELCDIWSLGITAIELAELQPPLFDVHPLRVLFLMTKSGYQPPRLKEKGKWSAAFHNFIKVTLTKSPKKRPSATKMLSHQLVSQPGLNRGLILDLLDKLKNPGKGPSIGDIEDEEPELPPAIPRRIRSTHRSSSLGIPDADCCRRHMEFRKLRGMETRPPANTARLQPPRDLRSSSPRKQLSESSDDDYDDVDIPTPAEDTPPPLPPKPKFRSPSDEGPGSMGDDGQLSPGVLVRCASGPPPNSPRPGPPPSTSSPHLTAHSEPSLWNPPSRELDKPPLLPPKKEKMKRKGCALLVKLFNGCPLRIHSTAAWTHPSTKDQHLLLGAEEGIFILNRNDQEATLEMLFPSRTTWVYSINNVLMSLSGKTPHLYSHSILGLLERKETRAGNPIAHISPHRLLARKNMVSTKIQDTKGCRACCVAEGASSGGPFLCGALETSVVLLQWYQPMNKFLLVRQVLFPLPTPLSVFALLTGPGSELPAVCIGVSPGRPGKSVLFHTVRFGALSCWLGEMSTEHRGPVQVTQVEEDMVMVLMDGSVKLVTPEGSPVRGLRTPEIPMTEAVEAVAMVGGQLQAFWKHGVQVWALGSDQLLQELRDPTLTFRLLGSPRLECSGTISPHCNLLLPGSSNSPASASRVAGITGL

SMILES | Ki [pM]
Cc1c(-c2cc3cc(NC(=O)OC4CCOC4)ncc3c(N)c2F)cnc2c1NCCO2 (racemic) [Compound 403, (±)-Tetrahydrofuran-3-yl (8-amino-7-fluoro-6-(8-methyl-2,3-dihydro-1H-pyrido[2,3-b][1,4]oxazin-7-yl)isoquinolin-3-yl)carbamate] | 23
Cc1c(-c2cc3cc(NC(=O)O[C@@H]4COC[C@H]4C)ncc3c(N)c2F)cnc2c1NCCO2 (racemic) [Compound 441ab, (±)-trans-4-Methyltetrahydrofuran-3-yl (8-amino-7-fluoro-6-(8-methyl-2,3-dihydro-1H-pyrido[2,3-b][1,4]oxazin-7-yl)isoquinolin-3-yl)carbamate] | 37
Cc1c(-c2cc3cc(NC(=O)O[C@@H]4CCO[C@H]4C)ncc3c(N)c2F)cnc2c1NCCO2 (racemic) [Compound 510a, (2S,3R)-2-methyltetrahydrofuran-3-yl (8-amino-7-fluoro-6-(8-methyl-2,3-dihydro-1H-pyrido[2,3-b][1,4]oxazin-7-yl)isoquinolin-3-yl)carbamate] | 395
Cc1c(-c2cc3cc(NC(=O)O[C@@H]4CCOC4)ncc3c(N)c2F)cnc2c1NCC(CO)C2 (mixture of isomers) [Compound 581a, (R)-Tetrahydrofuran-3-yl (8-amino-7-fluoro-6-(7-(hydroxymethyl)-4-methyl-5,6,7,8-tetrahydro-1,5-naphthyridin-3-yl)isoquinolin-3-yl)carbamate] | 430
Cc1c(-c2cc3cc(NC(=O)O[C@@H]4CCN(C5COC5)C[C@H]4F)ncc3c(N)c2F)cnc2c1NCCO2 (relative stereo) [Compound 445ab, (+1-)-trans-3-Fluoro-1-(oxetan-3-yl)piperidin-4-yl (8-amino-7-fluoro-6-(8-methyl-2,3-dihydro-1H-pyrido[2,3-b][1,4]oxazin-7-yl)isoquinolin-3-yl)carbamate] | < 13
Cc1c(-c2cc3cc(NC(=O)O[C@H]4CO[C@]5(CCN(C)C5)C4)ncc3c(N)c2F)cnc2c1NCCO2 (relative stereo) [Compound 467b, (3R,5R)-7-Methyl-1-oxa-7-azaspiro[4.4]nonan-3-yl(8-amino-7-fluoro-6-(8-methyl-2,3-dihydro-1H-pyrido[2,3-b][1,4]oxazin-7-yl)isoquinolin-3-yl)carbamate] | 64
Cc1c(-c2cc3cc(NC(=O)N[C@@H]4CC[C@H]4C#N)ncc3c(N)c2F)cnc2c1NCCO2 (relative stereo) [Compound 712ab, 1-(8-Amino-7-fluoro-6-(8-methyl-2,3-dihydro-1H-pyrido[2,3-b][1,4]oxazin-7-yl)isoquinolin-3-yl)-3-(trans-2-cyanocyclobutyl)urea] | < 13
Cc1c(-c2cc3cc(NC(=O)N[C@H]4CCC[C@H]4O)ncc3c(N)c2F)cnc2c1NCCO2 (relative stereo) [Compound 728a, 1-[8-Amino-7-fluoro-6-(8-methyl-2,3-dihydro-1H-pyrido[2,3-b][1,4]oxazin-7-yl)-3-isoquinolyl]-3-[(1S,2R)-2-hydroxycyclopentyl]urea] | < 13
Cc1c(-c2cc3cc(NC(=O)O[C@@H]4CCNC4)ncc3c(N)c2F)cnc2c1NCCO2 (single isomer, unassigned) [Compound 405a] | 138
Cc1c(-c2cc3cc(NC(=O)O[C@H]4CCNC4)ncc3c(N)c2F)cnc2c1NCCO2 (single isomer, unassigned) [Compound 405b] | 158
Cc1c(-c2cc3cc(NC(=O)O[C@H]4CCCNC4)ncc3c(N)c2F)cnc2c1NCCO2 (single isomer, unassigned) [Compound 408a] | 89
Cc1c(-c2cc3cc(NC(=O)O[C@@H]4CCCNC4)ncc3c(N)c2F)cnc2c1NCCO2 (single isomer, unassigned) [Compound 408b] | 69
Cc1c(-c2cc3cc(NC(=O)O[C@H]4CC(=O)N(C)C4)ncc3c(N)c2F)cnc2c1NCCO2 (single isomer, unassigned) [Compound 410a] | 167
Cc1c(-c2cc3cc(NC(=O)O[C@@H]4CC(=O)N(C)C4)ncc3c(N)c2F)cnc2c1NCCO2 (single isomer, unassigned) [Compound 410b] | 29
Cc1c(-c2cc3cc(NC(=O)OC4CCOCC4)ncc3c(N)c2F)cnc2c1[C@@H](O)CCO2 (single isomer, unassigned) [Compound 412a] | 41000
Cc1c(-c2cc3cc(NC(=O)OC4CCOCC4)ncc3c(N)c2F)cnc2c1[C@H](O)CCO2 (single isomer, unassigned) [Compound 412b] | 290
CC(=O)N[C@H]1CCCC[C@@H]1OC(=O)Nc1cc2cc(-c3cnc4c(c3C)NCCO4)c(F)c(N)c2cn1 (single isomer, unassigned) [Compound 414a] | 590
CC(=O)N[C@@H]1CCCC[C@H]1OC(=O)Nc1cc2cc(-c3cnc4c(c3C)NCCO4)c(F)c(N)c2cn1 (single isomer, unassigned) [Compound 414b] | 21000
CN[C@H]1CCCC[C@@H]1OC(=O)Nc1cc2cc(-c3cnc4c(c3C)NCCO4)c(F)c(N)c2cn1 (single isomer, unassigned) [Compound 415a] | 3000
CN[C@@H]1CCCC[C@H]1OC(=O)Nc1cc2cc(-c3cnc4c(c3C)NCCO4)c(F)c(N)c2cn1 (single isomer, unassigned) [Compound 415b] | 16000
CC(=O)N1CC[C@@H](OC(=O)Nc2cc3cc(-c4cnc5c(c4C)NCCO5)c(F)c(N)c3cn2)C1 (single isomer, unassigned) [Compound 418a] | < 13
Cc1c(-c2cc3cc(NC(=O)OC4CCN(C)CC4F)ncc3c(N)c2F)cnc2c1NCCO2 (single isomer, unassigned) [Compound 433] | < 13

SMILES | Ki [pM]
CC(=O)N1CC[C@H](OC(=O)Nc2cc3cc(-c4cnc5c(c4C)NCCO5)c(F)c(N)c3cn2)[C@H](F)C1 (single isomer, unassigned) [Compound 437a] | < 13
CC(=O)N1CC[C@@H](OC(=O)Nc2cc3cc(-c4cnc5c(c4C)NCCO5)c(F)c(N)c3cn2)[C@@H](F)C1 (single isomer, unassigned) [Compound 437b] | 54
Cc1c(-c2cc3cc(NC(=O)OC4C5COCC4CN(C)C5)ncc3c(N)c2F)cnc2c1NCCO2 (single isomer, unassigned) [Compound 439a] | < 13
Cc1c(-c2cc3cc(NC(=O)OC4C5COCC4CN(C)C5)ncc3c(N)c2F)cnc2c1NCCO2 (single isomer, unassigned) [Compound 439b] | 480
Cc1c(-c2cc3cc(NC(=O)O[C@H]4COCCN(C)C4)ncc3c(N)c2F)cnc2c1NCCO2 (single isomer, unassigned) [Compound 440a] | 84
Cc1c(-c2cc3cc(NC(=O)O[C@@H]4COCCN(C)C4)ncc3c(N)c2F)cnc2c1NCCO2 (single isomer, unassigned) [Compound 440b] | 277
Cc1c(-c2cc3cc(NC(=O)O[C@@H]4COC[C@H]4C)ncc3c(N)c2F)cnc2c1NCCO2 (single isomer, unassigned) [Compound 441a] | < 13
Cc1c(-c2cc3cc(NC(=O)O[C@H]4COC[C@H]4C)ncc3c(N)c2F)cnc2c1NCCO2 (single isomer, unassigned) [Compound 441c] | 160
Cc1c(-c2cc3cc(NC(=O)O[C@@H]4COC[C@@H]4C)ncc3c(N)c2F)cnc2c1NCCO2 (single isomer, unassigned) [Compound 441d] | 320
Cc1c(-c2cc3cc(NC(=O)O[C@H]4CN(C)C[C@H]4C)ncc3c(N)c2F)cnc2c1NCCO2 (single isomer, unassigned) [Compound 442b] | 201
Cc1c(-c2cc3cc(NC(=O)O[C@@H]4CN(C)C[C@H]4C)ncc3c(N)c2F)cnc2c1NCCO2 (single isomer, unassigned) [Compound 442c] | 154
Cc1c(-c2cc3cc(NC(=O)O[C@H]4CN(C)C[C@@H]4C)ncc3c(N)c2F)cnc2c1NCCO2 (single isomer, unassigned) [Compound 442d] | 46
CCc1c(-c2cc3cc(NC(=O)O[C@@H]4CC(=O)N(C)C4)ncc3c(N)c2F)cnc2c1NCCO2 (single isomer, unassigned) [Compound 444a] | < 13
CCc1c(-c2cc3cc(NC(=O)O[C@H]4CC(=O)N(C)C4)ncc3c(N)c2F)cnc2c1NCCO2 (single isomer, unassigned) [Compound 444b] | < 13
Cc1c(-c2cc3cc(NC(=O)OC[C@@]4(F)CCN(C)C4)ncc3c(N)c2F)cnc2c1NCCO2 (single isomer, unassigned) [Compound 451a] | 140
Cc1c(-c2cc3cc(NC(=O)OC[C@]4(F)CCN(C)C4)ncc3c(N)c2F)cnc2c1NCCO2 (single isomer, unassigned) [Compound 451b] | < 13
Cc1c(-c2cc3cc(NC(=O)O[C@@H]4CN(C)C[C@@H]4F)ncc3c(N)c2F)cnc2c1NCCO2 (single isomer, unassigned) [Compound 452d] | < 13
Cc1c(-c2cc3cc(NC(=O)OC4CCOCC4)ncc3c(N)c2F)cnc2c1NCC[C@H]2C (single isomer, unassigned) [Compound 461a] | 891
Cc1c(-c2cc3cc(NC(=O)OC4CCOCC4)ncc3c(N)c2F)cnc2c1NCC[C@@H]2C (single isomer, unassigned) [Compound 461b] | 1010
Cc1c(-c2cc3cc(NC(=O)O[C@@H]4CO[C@@]5(CCN(C)C5)C4)ncc3c(N)c2F)cnc2c1NCCO2 (single isomer, unassigned) [Compound 467a] | 31
Cc1c(-c2cc3cc(NC(=O)O[C@@H]4CO[C@]5(CCN(C)C5)C4)ncc3c(N)c2F)cnc2c1NCCO2 (single isomer, unassigned) [Compound 467c] | 27
Cc1c(-c2cc3cc(NC(=O)O[C@H]4CO[C@@]5(CCN(C)C5)C4)ncc3c(N)c2F)cnc2c1NCCO2 (single isomer, unassigned) [Compound 467d] | < 13
